From the NIST ThermoML archive (doi:10.1016/j.jct.2019.06.005)

Experiments:
[1] = xn = mol fraction of the nth substance listed; conditions: x2 = 0; for surface tension liquid-gas: Maximal bubble pressure; for mass density: 100 kPa, Liquid, Vibrating tube method
[2] = for surface tension liquid-gas: Maximal bubble pressure; for mass density: 100 kPa, Liquid, Vibrating tube method

CCO [ethanol] + COCC[n+]1ccn(C)c1.O=S(=O)([N-]S(=O)(=O)C(F)(F)F)C(F)(F)F
[1]
Conditions | mass density [kg/m3] | surface tension liquid-gas [mN/m]
288.15 K | 793.91 | 23.3
293.15 K | 789.66 | 22.7
298.15 K | 785.73 | 22.2
303.15 K | 781.05 | 21.6
308.15 K | 776.7 | 21.1
313.15 K | 772.31 | 20.7
318.15 K | 767.88 | 20

COCC[n+]1ccn(C)c1.O=S(=O)([N-]S(=O)(=O)C(F)(F)F)C(F)(F)F
[2]
Conditions | mass density [kg/m3] | surface tension liquid-gas [mN/m]
288.15 K | 1515.3 | 41.4
293.15 K | 1510.15 | 41.2
298.15 K | 1505.03 | 41
303.15 K | 1499.92 | 40.7
308.15 K | 1494.83 | 40.5
313.15 K | 1489.77 | 40.3
318.15 K | 1484.72 | 40.1

CO [methanol] + COCC[n+]1ccn(C)c1.O=S(=O)([N-]S(=O)(=O)C(F)(F)F)C(F)(F)F
[1]
Conditions | mass density [kg/m3] | surface tension liquid-gas [mN/m]
288.15 K | 796.037 | 24.4
293.15 K | 791.352 | 23.8
298.15 K | 786.643 | 22.9
303.15 K | 781.913 | 22.3
308.15 K | 777.16 | 21.8
313.15 K | 772.38 | 21.1
318.15 K | 767.567 | 20.5

CO [methanol]
[2]
Conditions | mass density [kg/m3] | surface tension liquid-gas [mN/m]
288.15 K | 796.037 | 24.4
293.15 K | 791.352 | 23.8
298.15 K | 786.643 | 22.9
303.15 K | 781.913 | 22.3
308.15 K | 777.16 | 21.8
313.15 K | 772.38 | 21.1
318.15 K | 767.567 | 20.5
